Values of other authors, collected in US20200392071A1, “Gene cluster for the biosynthetic production of tetracycline compounds in a heterologous host” (HELMHOLTZ-ZENTRUM FÜR INFEKTIONSFORSCHUNG GMBH, priority 2017, published 2020).

How the values were obtained:
[1] = system: tetracycline-resistant pathogens; conditions: Proctor et al. 1978
Gram-negative pathogens = conditions: patients with urinary tract infections caused by Gram-negative pathogens; Molnar et al. 1977

For CC(=O)C1=C(O)C(N)C2Cc3c(c(O)c4c(O)c(C)ccc4c3C)C(=O)C2(O)C1=O (centres unmarked) [chelocardin, Chelocardin], the “activity against tetracycline-resistant pathogens” value [1] is listed as “active” and the “outcome in a small phase II clinical study” value (Gram-negative pathogens) is listed as “promising”.
